Measured values published in PubChem BioAssay AID272 (DTP/NCI, 2004).
Where “and” joins values, the source holds several entries; their conditions need not be identical. Identical values can stand only once. Records with an inconclusive call do not appear.

System: Lewis lung carcinoma i.m., BDF1 mice, T/C %
Assay: NCI In Vivo Anticancer Drug Screen. Data for tumor model Lewis Lung Carcinoma (intramuscular) in B6D2F1 (BDF1) mice
Conditions: schedule: Q01DX011 (ip)
Procedure, shortened: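 Antitumour activity is assessed in transplanted-tumour mice. Endpoint is survival or tumour size, normalised to vehicle-dosed controls (T/C).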

[1] = endpoint: median survival time, dose: 12.5 mg/kg/injection, vehicle: saline, higher = longer survival
[2] = endpoint: mean tumor weight (est.), dose: 25.0 mg/kg/injection, vehicle: saline with Tween-80, higher = larger tumour
[3] = endpoint: mean tumor weight (est.), dose: 50.0 mg/kg/injection, vehicle: saline with Tween-80, higher = larger tumour
[4] = endpoint: mean tumor weight (est.), dose: 100.0 mg/kg/injection, vehicle: saline with Tween-80, higher = larger tumour

Nc1nc(N)c2nc(CNc3ccc(C(=O)NC(CCC(=O)O)C(=O)O)cc3)cnc2n1 (stereo not given)
T/C (endpoint: median survival time, dose: 4.0 micrograms/kg/injection, vehicle: other, higher = longer survival): 97 % of control | T/C (endpoint: median survival time, dose: 8.0 micrograms/kg/injection, vehicle: other, higher = longer survival): 86 % of control | T/C (endpoint: median survival time, dose: 16.0 micrograms/kg/injection, vehicle: other, higher = longer survival): 100 % of control | T/C (endpoint: median survival time, dose: 32.0 micrograms/kg/injection, vehicle: other, higher = longer survival): 109 % of control | T/C (endpoint: median survival time, dose: 65.0 micrograms/kg/injection, vehicle: other, higher = longer survival): 95 % of control

NC(C(=O)O)C(F)(F)C(=O)O (stereo not given)
T/C (endpoint: median survival time, dose: 3.12 mg/kg/injection, vehicle: saline, higher = longer survival): 109 % of control | T/C (endpoint: median survival time, dose: 6.25 mg/kg/injection, vehicle: saline, higher = longer survival): 100 % of control | T/C [1]: 104 % of control

O=c1ccc2nc3ccccc3sc-2c1
T/C (endpoint: mean tumor weight (est.), dose: 12.5 mg/kg/injection, vehicle: saline with Tween-80, higher = larger tumour): 73 % of control | T/C [2]: 75 % of control | T/C [3]: 78 % of control | T/C [4]: 42 % of control | T/C (endpoint: median survival time, dose: 25.0 mg/kg/injection, vehicle: saline with Tween-80, higher = longer survival): 89 % of control

CCc1ccc(/C=C/c2ccc(O)c3ncccc23)[n+](C)c1
T/C (endpoint: mean tumor weight, dose: 4.0 mg/kg/injection, vehicle: saline, higher = larger tumour): 53 % of control | T/C (endpoint: mean tumor weight, dose: 8.0 mg/kg/injection, vehicle: saline, higher = larger tumour): 61 % of control | T/C (endpoint: mean tumor weight, dose: 16.0 mg/kg/injection, vehicle: saline, higher = larger tumour): 46 % of control | T/C (endpoint: median survival time, dose: 4.0 mg/kg/injection, vehicle: saline, higher = longer survival): 97 % of control | T/C (endpoint: median survival time, dose: 8.0 mg/kg/injection, vehicle: saline, higher = longer survival): 116 % of control

Clc1ncnc2nc[nH]c12
T/C (endpoint: mean tumor weight (est.), dose: 6.25 mg/kg/injection, vehicle: other, higher = larger tumour): 76 % of control | T/C (endpoint: mean tumor weight (est.), dose: 12.5 mg/kg/injection, vehicle: other, higher = larger tumour): 91 % of control | T/C (endpoint: mean tumor weight (est.), dose: 25.0 mg/kg/injection, vehicle: other, higher = larger tumour): 105 % of control | T/C (endpoint: mean tumor weight (est.), dose: 50.0 mg/kg/injection, vehicle: other, higher = larger tumour): 89 % of control | T/C (endpoint: mean tumor weight (est.), dose: 100.0 mg/kg/injection, vehicle: other, higher = larger tumour): 74 % of control | T/C (endpoint: mean tumor weight, dose: 3.13 mg/kg/injection, vehicle: other, higher = larger tumour): 119 % of control | T/C (endpoint: mean tumor weight, dose: 6.25 mg/kg/injection, vehicle: other, higher = larger tumour): 103 % of control | T/C (endpoint: mean tumor weight, dose: 12.5 mg/kg/injection, vehicle: other, higher = larger tumour): 98 % of control | T/C (endpoint: mean tumor weight, dose: 25.0 mg/kg/injection, vehicle: other, higher = larger tumour): 50 % of control | T/C (endpoint: mean tumor weight, dose: 50.0 mg/kg/injection, vehicle: other, higher = larger tumour): 73 % of control | T/C (endpoint: median survival time, dose: 3.13 mg/kg/injection, vehicle: other, higher = longer survival): 96 % of control and 110 % of control | T/C (endpoint: median survival time, dose: 25.0 mg/kg/injection, vehicle: other, higher = longer survival): 96 % of control | T/C (endpoint: median survival time, dose: 50.0 mg/kg/injection, vehicle: other, higher = longer survival): 100 % of control and 116 % of control | T/C (endpoint: median survival time, dose: 100.0 mg/kg/injection, vehicle: other, higher = longer survival): 88 % of control

OCCNC1c2ccccc2-c2ccccc21
T/C [2]: 90 % of control | T/C [3]: 91 % of control | T/C [4]: 67 % of control | T/C (endpoint: median survival time, dose: 50.0 mg/kg/injection, vehicle: saline with Tween-80, higher = longer survival): 112 % of control

CC1(C)N=C(N)N=C(N)N1c1ccc(CCc2ccccc2)cc1
T/C (endpoint: mean tumor weight, dose: 12.5 mg/kg/injection, vehicle: saline, higher = larger tumour): 84 % of control | T/C (endpoint: mean tumor weight, dose: 25.0 mg/kg/injection, vehicle: saline, higher = larger tumour): 46 % of control | T/C [1]: 104 % of control | T/C (endpoint: median survival time, dose: 25.0 mg/kg/injection, vehicle: saline, higher = longer survival): 89 % of control
